In patent US12528832B2, “Crystalline or amorphous form of Bcl-2/Bcl-xL inhibitor compound or its salts” (ASCENTAGE PHARMA (SUZHOU) CO., LTD., priority 2020, dated 2026):
Where a name gives a salt, the structure may show the parent alone.

Columns and labels:
[1] = Stability test of amorphous form XIV (40° C., high humidity 92.5% RH, light; content, related substances); format: physicochemical
Description: Pack the amorphous sample with nitrogen, shading, and moisture-proof, and place it under 40° C., high humidity 92.5% RH, light conditions, and take samples at 0 days/5 days/10 days to investigate its content, related substances and crystal forms (light conditions: total illuminance≥1.2×106 Lux·hr, near ultraviolet energy≥200 w·hr/m2).

[2] = Hygroscopicity test, dynamic water adsorption (DVS); format: physicochemical
Description: Take about 10 mg of the Amorphous form XIV sample of the compound of formula I for dynamic water adsorption (DVS) test.

[3] = Stability test of salt form screening (25° C., R.T./75% RH, light; HPLC, XRPD); format: physicochemical
Description: Take an appropriate amount of the compound into an 8 mL glass bottle, and then place it at room temperature (25° C., open), high humidity (room temperature/75% RH, open) and light (room temperature, white light: 6980 lux, UV 282 μW/cm2). Take samples for testing on the 5th, 10th, and 30th day (HPLC, XRPD).

[4] = Physicochemical stability of crystalline form VI, one week storage (HPLC purity, XRPD form)
[5] = 10 Days, high humidity 92.5% RH
[6] = Light, room temperature, 5 Days
[7] = Light, room temperature, 10 Days

Row | Total impurities (%) ([3]; 25° C., open, 5 Days) | Total impurities (%) ([3]; 25° C., open, 10 Days) | Total impurities (%) ([3]; 25° C., open, 30 Days) | Total impurities (%) ([3]; Initial, 0 Days) | Total impurities (%) [3, 6] [%] | Total impurities (%) [3, 7] [%] | Total impurities (%) ([3]; R.T./75% RH, open, 5 Days) | Total impurities (%) ([3]; R.T./75% RH, open, 10 Days) | Total impurities (%) ([3]; R.T./75% RH, open, 30 Days) | SMILES | also measured
1 |  |  |  |  |  |  |  |  |  | Cc1c(S(C)(=O)=O)c(-c2cc(F)cc(N3CCN(c4ccc(NS(=O)(=O)c5ccc(N[C@H](CCN6CCC(C(=O)OCCCP(=O)(O)O)CC6)CSc6ccccc6)c(S(=O)(=O)C(F)(F)F)c5)cc4)CC3)c2)c(-c2ccc(Cl)cc2)n1C(C)C [Amorphous XIV] | physical and chemical stability (summary statement) [1]: good physical and chemical stability; Content(%) ([1]; 0 Days): 99.5%; Total impurities (%) ([1]; 0 Days): 0.39%; Content(%) ([1]; 5 Days, 40° C.): 100.3%; Total impurities (%) ([1]; 5 Days, 40° C.): 0.59%; Content(%) ([1]; 5 Days, high humidity 92.5% RH): 100.7%; Total impurities (%) ([1]; 5 Days, high humidity 92.5% RH): 0.37%; Content(%) ([1]; 5 Days, light): 100.4%; Total impurities (%) ([1]; 5 Days, light): 0.43%; Content(%) ([1]; 10 Days, 40° C.): 99.7%; Total impurities (%) ([1]; 10 Days, 40° C.): 0.64%; Content(%) [1, 5]: 99.7%; Total impurities (%) [1, 5]: 0.39%; Content(%) ([1]; 10 Days, light): 100.1%; Total impurities (%) ([1]; 10 Days, light): 0.41%; stability under high humidity and light conditions ([1]; packed with nitrogen, shading, moisture-proof): stable; stability to heat ([1]; packed with nitrogen, shading, moisture-proof, 40° C.): sensitive to heat; Hygroscopicity classification ([2]; DVS, 80% RH): Hygroscopic; Moisture gain (80% RH) ([2]; DVS, 80% RH): 4.83%; water absorption during storage ([2]; conclusion from DVS): easily absorb water
2 | 1.63 | 1.58 | 1.86 | 1.40 | 2.09 | 2.69 | 2.25 | 2.98 | 6.11 | Cc1c(S(C)(=O)=O)c(-c2cc(F)cc(N3CCN(c4ccc(NS(=O)(=O)c5ccc(N[C@H](CCN6CCC(C(=O)OCCCP(=O)(O)O)CC6)CSc6ccccc6)c(S(=O)(=O)C(F)(F)F)c5)cc4)CC3)c2)c(-c2ccc(Cl)cc2)n1C(C)C [Amorphous form XII of potassium salt] | 
3 | 1.89 | 1.94 | 2.29 | 1.65 | 2.20 | 3.55 | 2.45 | 3.08 | 6.31 | Cc1c(S(C)(=O)=O)c(-c2cc(F)cc(N3CCN(c4ccc(NS(=O)(=O)c5ccc(N[C@H](CCN6CCC(C(=O)OCCCP(=O)(O)O)CC6)CSc6ccccc6)c(S(=O)(=O)C(F)(F)F)c5)cc4)CC3)c2)c(-c2ccc(Cl)cc2)n1C(C)C [Amorphous form XIII of sodium salt] | 
4 | 0.79 | 0.89 | 1.23 | 0.73 | 1.33 | 1.94 | 1.59 | 2.59 | 7.00 | Cc1c(S(C)(=O)=O)c(-c2cc(F)cc(N3CCN(c4ccc(NS(=O)(=O)c5ccc(N[C@H](CCN6CCC(C(=O)OCCCP(=O)(O)O)CC6)CSc6ccccc6)c(S(=O)(=O)C(F)(F)F)c5)cc4)CC3)c2)c(-c2ccc(Cl)cc2)n1C(C)C [Amorphous form XV of maleate salt] | 
5 | 0.95 | 0.89 | 0.88 | 0.83 | 1.33 | 1.74 | 1.36 | 1.86 | 4.95 | Cc1c(S(C)(=O)=O)c(-c2cc(F)cc(N3CCN(c4ccc(NS(=O)(=O)c5ccc(N[C@H](CCN6CCC(C(=O)OCCCP(=O)(O)O)CC6)CSc6ccccc6)c(S(=O)(=O)C(F)(F)F)c5)cc4)CC3)c2)c(-c2ccc(Cl)cc2)n1C(C)C [Amorphous form XVI of meglumine salt] | physical and chemical stability (summary statement) [3]: good physical and chemical stability
6 |  |  |  |  |  |  |  |  |  | Cc1c(S(C)(=O)=O)c(-c2cc(F)cc(N3CCN(c4ccc(NS(=O)(=O)c5ccc(N[C@H](CCN6CCC(C(=O)OCCCP(=O)(O)O)CC6)CSc6ccccc6)c(S(=O)(=O)C(F)(F)F)c5)cc4)CC3)c2)c(-c2ccc(Cl)cc2)n1C(C)C [Crystal form VI] | physical and chemical stability (summary statement) [4]: good physical and chemical stability; change of purity and crystal form ([4]; 25° C./60% RH and 40° C./75% RH for one week): did not change significantly; HPLC purity (Peak area %) ([4]; 25° C./60% RH, one week): 99.01 Peak area %; Solid crystal form ([4]; 25° C./60% RH, one week): Crystal form VI; HPLC purity (Peak area %) ([4]; 40° C./75% RH, one week): 99.06 Peak area %; Solid crystal form ([4]; 40° C./75% RH, one week): Crystal form VI; HPLC purity (Peak area %) ([4]; Initial sample): 99.02 Peak area %; Solid crystal form ([4]; Initial sample): Crystal form VI
